EP0632029A1, “Benzylidene hydantoin derivative, ultraviolet ray absorbent and external preparation for skin including the same” (SHISEIDO COMPANY LIMITED, priority 1993, dated 1995)

Columns and labels:
Assay type in all cases: physicochemical
Solubility = experiment: Solubility
[1] = Reaction with metal ion (colour change after FeCl₃); details: for color of the solution BEFORE ADDING FeCl₃: 0.1g in 10 ml of 99.5% ethyl alcohol; for color change of the solution AFTER ADDING FeCl₃: 0.1g in 10 ml of 99.5% ethyl alcohol plus 2 ml of 0.02% FeCl₃
Procedure: Reactivities with trivalent iron ion of the following compounds 1 to 3 as examples of the benzylidene hydantoin derivative and 2-hydroxy-4-methoxybenzophenone (comparison 1) and 2-hydroxy-5-methylphenylbenzotriazol (comparison 2) were tested. (Method)
0.1g of each compounds were dissolved in 10 ml of 99.5% ethyl alcohol and added 2 ml of 0.02% FeCl₃ (99.5% ethyl alcohol solution), respectively. After stirring, color change of the solution were observed.

[2] = UV absorption maximum in ethanol (characterisation of the examples); details: for ε: at λmax
[3] = Ultraviolet ray absorption, 10ppm in ethanol, spectrophotometer; details: 10ppm in ethanol (99.5%), quartz cell 10mm
Procedure: Ultraviolet ray absorptivities of the compound 1, 3 and comparison (2-hydroxy-4-methoxybenzophenone; UV-A absorbent) were measured according to the following method.
The compound 1, 3 and the comparison compound were dissolved in ethanol (99.5%) so as to the concentration be 10ppm, and absorption were measured by using quartz cell (10mm×10mm) and the spectrophotometer UVIDEC-610 (JASCO CORPORATION).

| Solubility (Solubility; CETYL-2-ETHYLHEXANOATE) [%] | Solubility (Solubility; ETHANOL(99.5%)) [%] | Solubility (Solubility; OLIVE OIL) [%] | color of the solution BEFORE ADDING FeCl₃ [1] | color change of the solution AFTER ADDING FeCl₃ [1] | λmax (ethanol) [2] [nm] | ε [2] | absorption ([3]; WAVELENGTH 300 nm) | absorption ([3]; WAVELENGTH 310 nm) | absorption ([3]; WAVELENGTH 320 nm) | absorption ([3]; WAVELENGTH 330 nm) | absorption ([3]; WAVELENGTH 340 nm) | absorption ([3]; WAVELENGTH 350 nm) | absorption ([3]; WAVELENGTH 360 nm) | absorption ([3]; WAVELENGTH 370 nm) | absorption ([3]; WAVELENGTH 380 nm) | SMILES |
| --- | --- | --- | --- | --- | --- | --- | --- | --- | --- | --- | --- | --- | --- | --- | --- | --- |
| 2.1 | 1.2 | 3.2 | COLORLESS OR LIGHT YELLOW | NO CHANGE | 334 | 32,000 | 0.36 | 0.53 | 0.74 | 0.95 | 0.94 | 0.80 | 0.40 | 0.10 | 0.02 | CCCCC(CC)CN1C(=O)NC(=Cc2ccc(OC)cc2)C1=O (centres unmarked) [COMPOUND 1, 5-(4-METHOXYBENZYLIDENE)-3-(2-ETHYLHEXYL) HYDANTOIN] |
| 4 | 1.4 | 7 | COLORLESS OR LIGHT YELLOW | NO CHANGE | 336 | 32,500 | 0.24 | 0.39 | 0.55 | 0.73 | 0.76 | 0.68 | 0.40 | 0.14 | 0.03 | CCCCC(CC)COc1ccc(C=C2NC(=O)N(CC(CC)CCCC)C2=O)cc1 (centres unmarked) [COMPOUND 3, 5-[4-(2-ETHYLHEXYLOXY)BENZYLIDENE]-3-(2-ETHYLEXYL) HYDANTOIN] |
| – | – | – | – | – | – | – | 0.39 | 0.35 | 0.40 | 0.42 | 0.34 | 0.20 | 0.11 | 0.03 | 0.00 | COc1ccc(C(=O)c2ccccc2)c(O)c1 [COMPARISON, 2-hydroxy-4-methoxybenzophenone, reference compound] |

The remaining lines, values behind:

| SMILES | Solubility (Solubility; CETYL-2-ETHYLHEXANOATE) [%] | Solubility (Solubility; ETHANOL(99.5%)) [%] | Solubility (Solubility; OLIVE OIL) [%] | color of the solution BEFORE ADDING FeCl₃ [1] | color change of the solution AFTER ADDING FeCl₃ [1] | λmax (ethanol) [2] [nm] | ε [2] | absorption ([3]; WAVELENGTH 300 nm) | absorption ([3]; WAVELENGTH 310 nm) | absorption ([3]; WAVELENGTH 320 nm) | absorption ([3]; WAVELENGTH 330 nm) | absorption ([3]; WAVELENGTH 340 nm) | absorption ([3]; WAVELENGTH 350 nm) | absorption ([3]; WAVELENGTH 360 nm) | absorption ([3]; WAVELENGTH 370 nm) | absorption ([3]; WAVELENGTH 380 nm) |
| --- | --- | --- | --- | --- | --- | --- | --- | --- | --- | --- | --- | --- | --- | --- | --- | --- |
| CCCCCCCCN1C(=O)NC(=Cc2ccc(OC)cc2)C1=O [COM. 1, 5-(4-methoxybenzylidene)-3-n-octyl hydantoin, reference compound] | 0.2 | 0.65 | 0.4 | LIGHT YELLOW | BROWNING | – | – | – | – | – | – | – | – | – | – | – |
| COc1ccc(C=C2NC(=O)N(CCCCCCCCCCCCCCCC(C)C)C2=O)cc1 [compound 2, 5-(4-METHOXYBENZYLIDENE)-3-[…]] | 14 | 4.0 | 17 | COLORLESS OR LIGHT YELLOW | NO CHANGE | 334 | 31,500 | – | – | – | – | – | – | – | – | – |
